In US9163007B2, “5-substituted indazoles as kinase inhibitors” (AbbVie Inc., priority 2007, dated 2015):
Like-named read-outs stand apart in the source and are kept apart here.

How the values were obtained:
Cdc7/Dbf4 = Cdc7/Dbf4 (Homo sapiens (Human), UniProt O00311); experiment: Cdc7 Inhibition Assay; type: biochemical;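 further: reaction mixtures incubated 30 min on streptavidin-coated plates, then quantified by scintillation counting, with inhibition curves fitted by non-linear regression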
Protocol: The reactions were incubated for 30 minutes on streptavidin-coated plates, washed, and quantified using a TopCount scintillation plate reader (Packard). IC50 values are determined via non-linear regression fitting of the data.

HCT-116 cells = experiment: AlamarBlue Cell Viability Assays; type: cell-based; details: Homo sapiens, treated 72 hours
Protocol: AlamarBlue Cell Viability Assays
HCT-116 cells (3,000/well; 96-well format) were treated for 72 hours with increasing concentrations of compounds (0.01-30 μM in half-log increments). The cells were then incubated in fresh media with 10% AlamarBlue reagent (Invitrogen #DAL1100). AlamarBlue reactions were incubated according to the manufacturer's instructions (approximately 4 hours) and then analyzed using an fmax fluorescence microplate reader (Molecular Devices) using excitation/emission wavelengths of 544/595 nm. Data were analyzed using SOFTmax PRO software provided by the manufacturer.

[1] = 11 data point, read-out: Ki (μM) 11 data point
[2] = 6 data point, read-out: Ki (μM) 6 data point

Sequence of Cdc7/Dbf4 (O00311 whole entry): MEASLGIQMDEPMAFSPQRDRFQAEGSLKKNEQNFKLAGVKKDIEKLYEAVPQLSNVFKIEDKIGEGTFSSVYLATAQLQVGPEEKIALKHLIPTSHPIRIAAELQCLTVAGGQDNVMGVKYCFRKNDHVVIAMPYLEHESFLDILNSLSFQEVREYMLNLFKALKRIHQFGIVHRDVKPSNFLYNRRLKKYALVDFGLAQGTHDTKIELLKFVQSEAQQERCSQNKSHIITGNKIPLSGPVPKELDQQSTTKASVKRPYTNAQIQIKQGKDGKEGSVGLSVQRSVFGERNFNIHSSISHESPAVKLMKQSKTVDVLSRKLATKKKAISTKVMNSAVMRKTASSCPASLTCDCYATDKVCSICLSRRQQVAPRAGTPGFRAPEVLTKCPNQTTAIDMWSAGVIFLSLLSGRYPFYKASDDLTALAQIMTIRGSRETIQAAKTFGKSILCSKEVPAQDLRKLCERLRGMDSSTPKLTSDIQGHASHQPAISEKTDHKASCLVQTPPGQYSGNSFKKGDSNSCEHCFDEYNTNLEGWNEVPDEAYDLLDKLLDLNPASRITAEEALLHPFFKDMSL
Sequence of Cdc7/Dbf4 (Q9UBU7 whole entry partner): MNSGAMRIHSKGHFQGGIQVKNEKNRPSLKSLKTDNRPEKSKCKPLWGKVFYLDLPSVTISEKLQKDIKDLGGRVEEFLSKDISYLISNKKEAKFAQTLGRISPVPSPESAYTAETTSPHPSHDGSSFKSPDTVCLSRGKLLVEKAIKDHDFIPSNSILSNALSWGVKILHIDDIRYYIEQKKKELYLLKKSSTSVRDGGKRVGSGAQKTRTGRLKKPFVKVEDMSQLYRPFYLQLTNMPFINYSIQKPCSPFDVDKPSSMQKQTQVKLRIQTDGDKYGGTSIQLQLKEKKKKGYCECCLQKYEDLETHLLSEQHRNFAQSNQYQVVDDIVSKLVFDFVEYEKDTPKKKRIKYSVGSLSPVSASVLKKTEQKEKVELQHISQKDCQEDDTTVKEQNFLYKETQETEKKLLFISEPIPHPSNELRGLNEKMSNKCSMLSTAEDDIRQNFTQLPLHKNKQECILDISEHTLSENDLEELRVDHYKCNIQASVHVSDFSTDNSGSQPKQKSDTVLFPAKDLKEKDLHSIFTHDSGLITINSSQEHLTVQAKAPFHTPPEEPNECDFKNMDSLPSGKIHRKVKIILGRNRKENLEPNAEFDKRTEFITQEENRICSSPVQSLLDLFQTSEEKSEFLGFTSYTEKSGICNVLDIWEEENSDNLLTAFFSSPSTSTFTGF

SMILES | Ki (Cdc7/Dbf4; [1]) | EC50 (HCT-116 cells) | Ki (Cdc7/Dbf4; [2])
Fc1ccc(Cn2cc(-c3ccc4[nH]ncc4c3)nn2)cc1 [Example 10, 5-[1-(4-fluorobenzyl)-1H-1,2,3-triazol-4-yl]-1H-indazole] | 0.0563 µM | – | –
Clc1ccc(Cn2cc(-c3ccc4[nH]ncc4c3)nn2)c(Cl)c1 [Example 32, 5-[1-(2,4-dichlorobenzyl)-1H-1,2,3-triazol-4-yl]-1H-indazole] | 0.0127 µM | > 30000 nM | –
O=C(c1cccc(Cl)c1)c1c(-c2ccc3[nH]ncc3c2)nnn1CC1CCOCC1 [Example 146, (3-chlorophenyl)[4-(1H-indazol-5-yl)-1-(tetrahydro-2H-pyran-4-ylmethyl)-1H-1,2,3-triazol-5-yl]methanone] | – | – | 0.229 µM
Nc1n[nH]c2ccc(-c3nnn(Cc4ccc(C(F)(F)F)cc4)c3-c3ccc(F)cc3)cc12 [Example 150, 5-{5-(4-fluorophenyl)-1-[4-(trifluoromethyl)benzyl]-1H-1,2,3-triazol-4-yl}-1H-indazol-3-amine] | 0.43 µM | – | –
O=C(c1c(-c2ccc3[nH]ncc3c2)nnn1Cc1ccccc1)N1CCCCC1 [Example 169, 5-[1-benzyl-5-(piperidin-1-ylcarbonyl)-1H-1,2,3-triazol-4-yl]-1H-indazole] | – | – | > 1.23 µM
Cc1ccccc1-c1c(-c2ccc3[nH]nc(N)c3c2)nnn1CC1CCOCC1 [Example 171, 5-[5-(2-methylphenyl)-1-(tetrahydro-2H-pyran-4-ylmethyl)-1H-1,2,3-triazol-4-yl]-1H-indazol-3-amine] | – | – | 0.03 µM
O=C(c1c(-c2ccc3[nH]ncc3c2)nnn1Cc1ccccc1)N1CCOCC1 [Example 172, 5-[1-benzyl-5-(morpholin-4-ylcarbonyl)-1H-1,2,3-triazol-4-yl]-1H-indazole] | – | – | > 1.23 µM
NC1CCN(C(=O)c2c(-c3ccc4[nH]ncc4c3)nnn2Cc2ccccc2)CC1 [Example 197, 1-{[1-benzyl-4-(1H-indazol-5-yl)-1H-1,2,3-triazol-5-yl]carbonyl}piperidin-4-amine] | – | – | 1.23 µM
O=S(=O)(Nc1n[nH]c2ccc(-c3nnn(Cc4ccccc4)c3-c3ccccc3)cc12)c1ccccc1 [Example 199, N-[5-(1-benzyl-5-phenyl-1H-1,2,3-triazol-4-yl)-1H-indazol-3-yl]benzenesulfonamide] | 0.34 µM | – | –
COc1ccc(NC(=O)Nc2n[nH]c3ccc(-c4nnn(Cc5ccccc5)c4-c4ccccc4)cc23)cc1 [Example 200, N-[5-(1-benzyl-5-phenyl-1H-1,2,3-triazol-4-yl)-1H-indazol-3-yl]-N′-(4-methoxyphenyl)urea] | 0.013 µM | 13500 nM | –
c1ccc(CNc2n[nH]c3ccc(-c4nnn(Cc5ccccc5)c4C4CC4)cc23)cc1 [Example 207, N-benzyl-5-(1-benzyl-5-cyclopropyl-1H-1,2,3-triazol-4-yl)-1H-indazol-3-amine] | – | – | 0.046 µM
CCS(=O)(=O)Nc1n[nH]c2ccc(-c3nnn(Cc4ccccc4)c3C3CC3)cc12 [Example 216, N-[5-(1-benzyl-5-cyclopropyl-1H-1,2,3-triazol-4-yl)-1H-indazol-3-yl]ethanesulfonamide] | 0.12 µM | 19100 nM | –
O=S(=O)(Nc1n[nH]c2ccc(-c3nnn(Cc4ccccc4)c3C3CC3)cc12)c1ccccc1 [Example 217, N-[5-(1-benzyl-5-cyclopropyl-1H-1,2,3-triazol-4-yl)-1H-indazol-3-yl]benzenesulfonamide] | 1 µM | – | –
O=S(=O)(Nc1n[nH]c2ccc(-c3nnn(Cc4ccccc4)c3C3CC3)cc12)c1ccccc1Cl [Example 218, N-[5-(1-benzyl-5-cyclopropyl-1H-1,2,3-triazol-4-yl)-1H-indazol-3-yl]-2-chlorobenzenesulfonamide] | > 1.23 µM | – | –
O=S(=O)(Nc1n[nH]c2ccc(-c3nnn(Cc4ccccc4)c3C3CC3)cc12)c1ccc(Cl)cc1 [Example 220, N-[5-(1-benzyl-5-cyclopropyl-1H-1,2,3-triazol-4-yl)-1H-indazol-3-yl]-4-chlorobenzenesulfonamide] | 0.98 µM | – | –
O=C(Nc1ccccc1)c1c(-c2ccc3[nH]ncc3c2)nnn1Cc1ccccc1 [Example 243, 1-benzyl-4-(1H-indazol-5-yl)-N-phenyl-1H-1,2,3-triazole-5-carboxamide] | – | – | > 1.23 µM
CC1CN(C(=O)c2c(-c3ccc4[nH]ncc4c3)nnn2Cc2ccccc2)CC(C)O1 (stereo not shown) [Example 254, 5-{1-benzyl-5-[(2,6-dimethylmorpholin-4-yl)carbonyl]-1H-1,2,3-triazol-4-yl}-1H-indazole] | – | – | > 1.23 µM
CC(=O)N1CCN(C(=O)c2c(-c3ccc4[nH]ncc4c3)nnn2Cc2ccccc2)CC1 [Example 255, 5-{5-[(4-acetylpiperazin-1-yl)carbonyl]-1-benzyl-1H-1,2,3-triazol-4-yl}-1H-indazole] | – | – | > 1.23 µM
CN(C)CCC(=O)Nc1n[nH]c2ccc(-c3cn(Cc4ccccc4)nn3)cc12 [Example 311, N^1-[5-(1-benzyl-1H-1,2,3-triazol-4-yl)-1H-indazol-3-yl]-N^3,N^3-dimethyl-beta-alaninamide] | > 1.23 µM | – | –
O=C1CN(CC(=O)Nc2n[nH]c3ccc(-c4cn(Cc5ccccc5)nn4)cc23)CCN1 [Example 314, N-[5-(1-benzyl-1H-1,2,3-triazol-4-yl)-1H-indazol-3-yl]-2-(3-oxopiperazin-1-yl)acetamide] | 0.18 µM | – | –

SMILES | Ki (Cdc7/Dbf4; [1]) | EC50 (HCT-116 cells) | Ki (Cdc7/Dbf4; [2])
O=C(CNC1CCCCC1)Nc1n[nH]c2ccc(-c3cn(Cc4ccccc4)nn3)cc12 [Example 316, N^1-[5-(1-benzyl-1H-1,2,3-triazol-4-yl)-1H-indazol-3-yl]-N^2-cyclohexylglycinamide] | 0.5 µM | – | –
O=C(CNC1CCC1)Nc1n[nH]c2ccc(-c3cn(Cc4ccccc4)nn3)cc12 [Example 318, N^1-[5-(1-benzyl-1H-1,2,3-triazol-4-yl)-1H-indazol-3-yl]-N^2-cyclobutylglycinamide] | > 1.23 µM | – | –
CCS(=O)(=O)Nc1n[nH]c2ccc(-c3cn(Cc4ccccc4)nn3)cc12 [Example 320, N-[5-(1-benzyl-1H-1,2,3-triazol-4-yl)-1H-indazol-3-yl]ethanesulfonamide] | 0.41 µM | – | –
c1ccc(Cn2cc(-c3ccc4[nH]nc(NCC5CC5)c4c3)nn2)cc1 [Example 321, 5-(1-benzyl-1H-1,2,3-triazol-4-yl)-N-(cyclopropylmethyl)-1H-indazol-3-amine] | 0.57 µM | – | –
O=C1CCCN1c1n[nH]c2ccc(-c3cn(Cc4ccccc4)nn3)cc12 [Example 323, 1-[5-(1-benzyl-1H-1,2,3-triazol-4-yl)-1H-indazol-3-yl]pyrrolidin-2-one] | 0.18 µM | – | –
CN(C)C(=O)c1n[nH]c2ccc(-c3cn(Cc4ccccc4)nn3)cc12 [Example 396, 5-(1-benzyl-1H-1,2,3-triazol-4-yl)-N,N-dimethyl-1H-indazole-3-carboxamide] | 0.681 µM | – | –
Cn1ccnc1-c1n[nH]c2ccc(-c3cn(Cc4ccccc4)nn3)cc12 [Example 398, 5-(1-benzyl-1H-1,2,3-triazol-4-yl)-3-(1-methyl-1H-imidazol-2-yl)-1H-indazole] | 0.489 µM | – | –
c1ccc(Cn2cc(-c3ccc4[nH]nc(N5CCOCC5)c4c3)nn2)cc1 [Example 399, 5-(1-benzyl-1H-1,2,3-triazol-4-yl)-3-morpholin-4-yl-1H-indazole] | 0.63 µM | – | –
CN1CCN(c2n[nH]c3ccc(-c4cn(Cc5ccccc5)nn4)cc23)CC1 [Example 400, 5-(1-benzyl-1H-1,2,3-triazol-4-yl)-3-(4-methylpiperazin-1-yl)-1H-indazole] | 0.23 µM | – | –
c1ccc(Cn2cc(-c3ccc4[nH]nc(-c5nccs5)c4c3)nn2)cc1 [Example 404, 5-(1-benzyl-1H-1,2,3-triazol-4-yl)-3-(1,3-thiazol-2-yl)-1H-indazole] | 0.258 µM | – | –
c1ccc(Cn2cc(-c3ccc4[nH]nc(NCCN5CCOCC5)c4c3)nn2)cc1 [Example 407, 5-(1-benzyl-1H-1,2,3-triazol-4-yl)-N-(2-morpholin-4-ylethyl)-1H-indazol-3-amine] | 0.22 µM | – | –
CCCCNc1n[nH]c2ccc(-c3cn(Cc4ccccc4)nn3)cc12 [Example 410, 5-(1-benzyl-1H-1,2,3-triazol-4-yl)-N-butyl-1H-indazol-3-amine] | 0.04 µM | – | –
c1ccc(CNc2n[nH]c3ccc(-c4cn(Cc5ccccc5)nn4)cc23)cc1 [Example 411, N-benzyl-5-(1-benzyl-1H-1,2,3-triazol-4-yl)-1H-indazol-3-amine] | 0.12 µM | – | –
Clc1ccc(CNc2n[nH]c3ccc(-c4cn(Cc5ccccc5)nn4)cc23)cc1 [Example 412, 5-(1-benzyl-1H-1,2,3-triazol-4-yl)-N-(4-chlorobenzyl)-1H-indazol-3-amine] | 0.14 µM | – | –
COc1ccc(CNc2n[nH]c3ccc(-c4cn(Cc5ccccc5)nn4)cc23)cc1 [Example 413, 5-(1-benzyl-1H-1,2,3-triazol-4-yl)-N-(4-methoxybenzyl)-1H-indazol-3-amine] | 0.052 µM | – | –
Fc1cccc(CNc2n[nH]c3ccc(-c4cn(Cc5ccccc5)nn4)cc23)c1 [Example 414, 5-(1-benzyl-1H-1,2,3-triazol-4-yl)-N-(3-fluorobenzyl)-1H-indazol-3-amine] | 0.038 µM | – | –
N#Cc1ccc(CNc2n[nH]c3ccc(-c4cn(Cc5ccccc5)nn4)cc23)cc1 [Example 415, 4-({[5-(1-benzyl-1H-1,2,3-triazol-4-yl)-1H-indazol-3-yl]amino}methyl)benzonitrile] | 0.065 µM | – | –
Fc1ccc(CNc2n[nH]c3ccc(-c4cn(Cc5ccccc5)nn4)cc23)c(F)c1 [Example 416, 5-(1-benzyl-1H-1,2,3-triazol-4-yl)-N-(2,4-difluorobenzyl)-1H-indazol-3-amine] | 0.037 µM | – | –
c1ccc(Cn2cc(-c3ccc4[nH]nc(NCC5CCCCC5)c4c3)nn2)cc1 [Example 417, 5-(1-benzyl-1H-1,2,3-triazol-4-yl)-N-(cyclohexylmethyl)-1H-indazol-3-amine] | 0.35 µM | – | –
c1ccc(-n2cc(-c3ccc4[nH]ncc4c3)nn2)cc1 [Example 418, 5-(1-phenyl-1H-1,2,3-triazol-4-yl)-1H-indazole] | 0.192 µM | – | –
